The numbers were not newly measured in patent US20220168121A1, “FIBROSIS-INDUCING DRUG-ELUTING STENT FOR BLOCKING ELECTRIC CONDUCTION” (SUNGKWANG MEDICAL FOUNDATION, priority 2019, published 2022), which cites them from elsewhere.

Structures can show the parent of a compound that is named as a salt.

In the case of `CCCCCCCCCCCCCCOS(=O)(=O)O` [sodium tetradecyl sulfate], the water solubility entry was “water insoluble”. Take `CCCCC(CC)CCC(CC(C)C)OS(=O)(=O)O` (stereo not drawn) [sodium tetradecyl sulfate]: the water solubility result was “water soluble”. For the same molecule, for the setting “solid state”, the “stability in a solid state” value is “unstable properties in a solid state”.
